Assay results reported in PubChem BioAssay AID463089 (NMMLSC, 2010).
Activity calls are given as the source filed them.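 How the source made its calls: active means compound whose binding-signal loss grows with dose, reaching half its maximum below 10 micromolar; inactive means the rest.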

What was measured:
[1] = modulators of MEKK2-MEK5 PB1 interaction, dose response, biochemical, TR-FRET, Eu and Cy5 interference panels (AID 463089); conditions: TR-FRET MEKK2-MEK5 PB1 binding; for response (panel-specific, % change): at 30 µM (top of the series)
[2] = target: Mitogen-activated protein kinase kinase kinase 2 (Homo sapiens) (UniProt Q9Y2U5); assay: as above; conditions: TR-FRET MEKK2-MEK5 PB1 binding, TR-FRET binding assay; for response (panel-specific, % change): at 30 µM (top of the series)
Chain of Mitogen-activated protein kinase kinase kinase 2 (Homo sapiens) (Q9Y2U5 whole entry, looked up): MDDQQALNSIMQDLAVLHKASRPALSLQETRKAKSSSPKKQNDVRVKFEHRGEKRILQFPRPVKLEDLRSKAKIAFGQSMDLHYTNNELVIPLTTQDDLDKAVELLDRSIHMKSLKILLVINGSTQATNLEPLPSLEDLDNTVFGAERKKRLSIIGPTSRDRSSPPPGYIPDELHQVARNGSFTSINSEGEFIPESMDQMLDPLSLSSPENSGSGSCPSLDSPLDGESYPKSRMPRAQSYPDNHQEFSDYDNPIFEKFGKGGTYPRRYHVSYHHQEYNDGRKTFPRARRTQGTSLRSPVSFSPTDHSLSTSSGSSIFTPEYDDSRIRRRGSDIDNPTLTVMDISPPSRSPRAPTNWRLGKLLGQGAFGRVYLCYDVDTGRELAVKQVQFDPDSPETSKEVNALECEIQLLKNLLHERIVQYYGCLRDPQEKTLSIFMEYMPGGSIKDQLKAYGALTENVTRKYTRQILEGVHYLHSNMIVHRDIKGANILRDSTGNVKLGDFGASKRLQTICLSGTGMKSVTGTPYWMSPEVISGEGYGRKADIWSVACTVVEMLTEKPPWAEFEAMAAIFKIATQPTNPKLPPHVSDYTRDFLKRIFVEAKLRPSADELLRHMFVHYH

[3] = Cy5 fluorescence 665 nm counterscreen
[4] = Eu fluorescence 620 nm counterscreen

| response (panel-specific, % change) [1, 3] | EC50 [1, 4] | EC50 [2] | response (panel-specific, % change) [2] | response (panel-specific, % change) [1, 4] | EC50 [1, 3] | SMILES |
| --- | --- | --- | --- | --- | --- | --- |
| inactive | 1500 nM | 2000 nM |  |  |  | Nc1cc2nc[nH]c2cc1N |
| inactive | 1600 nM | 3500 nM |  |  |  | CCNc1ccc2noc3c2c1C(=O)c1ccccc1-3 |
| inactive | 2000 nM |  | inactive |  |  | CCN1/C(=C/C(C)=C/c2sc3ccccc3[n+]2CC)Sc2ccccc21 |
| inactive |  | 2200 nM |  | inactive |  | COc1cccc(OC)c1-c1nn2c(-c3cc(-c4ccccc4)n[nH]3)nnc2s1 |
| inactive |  |  |  | inactive |  | CN1CCN(c2ccc(NC(=O)c3ccc(-c4ccc(Cl)cc4)o3)cc2)CC1 |
|  | 1900 nM |  | inactive |  | 4100 nM | CCC(=C/c1sc2ccc3ccccc3c2[n+]1C)/C=C1\Sc2ccc3ccccc3c2N1C |
